Test results as given in BindingDB's records for doi:10.1021/jm00053a025 (University of Minnesota, 1993).
pKi: −log10 of the molar value.

Test: Binding affinity for delta opioid receptor was determined using radioligand [3H]DPDPE in Guinea pig brain membranes.

CCCCC(=N)NCc1ccc2[nH]c3c(c2c1)C[C@@]1(O)C2Cc4ccc(O)c5c4[C@@]1(CCN2CC1CC1)C3O5 (stereo partly drawn) [22-cyclopropylmethyl-7-(1-iminopentylaminomethyl)-(2S)-14-oxa-11,22-diazaheptacyclo[13.9.1.01,13.02,21.04,12.05,10.019,25]pentacosa-4(12),5(10),6,8,15,17,19(25)-heptaene-2,16-diol]
pKi: 8.26
